Measurements taken from PMC11079024, “Identification of a family of species-selective complex I inhibitors as potential anthelmintics” (Nature Communications, 2024).
Like-named read-outs stand apart in the source and are kept apart here.

How the values were obtained:
[1] = system: L1 wild-type C. elegans
[2] = in vitro; details: human; for viability at 2 days, 12.5 µM / viability at 2 days, 25 µM / viability at 2 days, 50 µM / viability at 2 days, 100 µM / viability at 2 days, 3.13 µM / viability at 2 days, 6.25 µM: HEK293 cells (Flp-In-293); for viability at 2 days, 12.5 µM / viability at 2 days, 25 µM / viability at 2 days, 50 µM / viability at 2 days, 100 µM / viability / viability at 2 days, 3.13 µM / viability at 2 days, 6.25 µM: HEK293 viability
[3] = system: ben-1 mutant (ECA882) C. elegans; assay: microbe, parasite or virus in culture; details: Caenorhabditis elegans; for viability at 15.6 µM / viability at 31.3 µM / viability at 62.5 µM / viability at 125 µM / viability at 250 µM / viability at 500 µM / viability at 1000 µM / viability at 1 µM / viability at 2 µM / viability at 3.9 µM: read-out: C. elegans ben-1(e1880) development/viability
Method in brief: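 L1 larvae (~2 worms/μL in M9) in liquid NGM with 2-fold concentrated E. coli HB101, compound at 1% DMSO, 6 days at 20 °C shaking 165 rpm. Well images scored as summed worm-associated pixels, normalized to DMSO controls; relative viability averaged over at least three biological replicates.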

[4] = system: L1 wild-type C. elegans; assay: microbe, parasite or virus in culture; details: Caenorhabditis elegans, read-out: C. elegans KCN Survival Assay LC50, estimated from fitted dose-response curves; mean of at least two biological replicates
[5] = 50 μM, […], hit = relative motility below 0.25 3 hours after removal of KCN
[6] = Dose 0.2 µM, mean of at least three biological replicates
[7] = read-out: C. elegans (ben-1) Development & Viability Assay LC50
[8] = read-out: C. elegans ben-1 log10 LC50 (converted)
[9] = 50 μM compound, […], hit = relative motility below 0.25 3 hours after removal of KCN
[10] = HEK293 Cell Viability Assay LC50, HEK293 cells, estimated from fitted dose-response curves, mean of at least two biological replicates

SMILES: Cc1ccc(CSCc2nc3ccccc3[nH]2)cc1 [Compound 7121781]
- Screen "Hit" [1, 5]: Y (hits were identified as compounds that reduced relative motility below 0.25 (75% reduction))
- Relative Motility ([1]; 50 μM, […], worm motility 3 hours after removal of KCN, relative to DMSO controls, single biological replicate): 0.077
- C. elegans KCN Survival [1, 6]: 1.008
- C. elegans KCN Survival ([1]; Dose 0.39 µM): 0.850
- C. elegans KCN Survival ([1]; Dose 1.56 µM): 0.802
- C. elegans KCN Survival ([1]; Dose 3.13 µM): 0.857
- C. elegans KCN Survival ([1]; Dose 6.25 µM): 0.615
- C. elegans KCN Survival ([1]; Dose 12.5 µM): 0.348
- C. elegans KCN Survival ([1]; Dose 25 µM): 0.053
- C. elegans KCN Survival ([1]; Dose 50 µM): 0.003
- C. elegans KCN Survival ([1]; Dose 100 µM): 0.000
- CC50 at 2 days [2]: 74.2 µM
- viability at 2 days, 12.5 µM [2]: 90%
- viability at 2 days, 25 µM [2]: 91.3%
- viability at 2 days, 50 µM [2]: 64.3%
- viability at 2 days, 100 µM [2]: 28.3%
- viability ([2]; Dose 3.13 µM): 86.1%
- viability ([2]; Dose 6.25 µM): 87.2%
- LC50 [3, 7]: 468 µM
- viability at 15.6 µM [3]: 87.2%
- viability at 31.3 µM [3]: 91.7%
- viability at 62.5 µM [3]: 100%
- viability at 125 µM [3]: 87.1%
- viability at 250 µM [3]: 86.1%
- viability at 500 µM [3]: 47.1%
- viability at 1000 µM [3]: 8.1%
- LC50 [3, 8]: 468 µM
- LC50 [4]: 9.79 µM

SMILES: Nc1nc2ccccc2n1CCOc1ccc(Br)cc1 [Compound 5842535]
- Screen "Hit" [1, 5]: Y (hits were identified as compounds that reduced relative motility below 0.25 (75% reduction))
- C. elegans KCN Survival [1, 6]: 1.013
- C. elegans KCN Survival ([1]; Dose 0.39 µM): 1.010
- C. elegans KCN Survival ([1]; Dose 1.56 µM): 1.035
- C. elegans KCN Survival ([1]; Dose 3.13 µM): 1.110
- C. elegans KCN Survival ([1]; Dose 6.25 µM): 1.056
- C. elegans KCN Survival ([1]; Dose 12.5 µM): 0.989
- C. elegans KCN Survival ([1]; Dose 25 µM): 0.572
- C. elegans KCN Survival ([1]; Dose 50 µM): 0.188
- C. elegans KCN Survival ([1]; Dose 100 µM): 0.200
- CC50 at 2 days ([2]; HEK293 Cell Viability Assay LC50, HEK293 cells, estimated from fitted dose-response curves): 17.3 µM
- viability at 2 days, 3.13 µM ([2]; Dose 3.13 µM): 79.2%
- viability at 2 days, 6.25 µM ([2]; Dose 6.25 µM): 82.9%
- viability at 2 days, 12.5 µM [2]: 67.8%
- viability at 2 days, 25 µM [2]: 11%
- viability at 2 days, 50 µM [2]: 6.3%
- viability at 2 days, 100 µM [2]: 6.3%
- LC50 [3, 7]: 41.1 µM
- viability at 1 µM [3]: 99.9%
- viability at 2 µM [3]: 100%
- viability at 3.9 µM [3]: 97.9%
- viability at 15.6 µM [3]: 100%
- viability at 31.3 µM [3]: 85.9%
- viability at 62.5 µM [3]: 5.7%
- viability at 125 µM [3]: 6%
- LC50 [3, 8]: 41 µM
- LC50 [4]: 26.7 µM

SMILES: c1ccc(CCCCCCCCCCc2nc3ccccc3[nH]2)cc1 [STL442376]
- Screen "Hit" [1, 9]: Y (hits were identified as compounds that reduced relative motility below 0.25 (75% reduction))
- CC50 at 2 days [2, 10]: < 6.25 µM
- LC50 [3, 7]: 640 µM
- LC50 [3, 8]: 640 µM
- LC50 [4]: 5.61 µM

SMILES: C=CCn1c(-c2ccc(N(C)C)cc2)nc2ccccc21 [Compound 6873298]
- Screen "Hit" ([1]; 50 μM, […], KCN survival assay, hit = relative motility below 0.25): Y (hits were identified as compounds that reduced relative motility below 0.25 (75% reduction))
- CC50 at 2 days [2, 10]: 65.3 µM
- LC50 [3, 7]: 40.6 µM
- LC50 [3, 8]: 40.6 µM
- LC50 [4]: 5.19 µM

SMILES: Cc1nc2ccccc2n1CCOc1ccccc1Cl [Compound 5561642]
- Screen "Hit" [1, 5]: Y (hits were identified as compounds that reduced relative motility below 0.25 (75% reduction))
- C. elegans KCN Survival [1, 6]: 0.982
- C. elegans KCN Survival ([1]; Dose 0.39 µM): 1.047
- C. elegans KCN Survival ([1]; Dose 1.56 µM): 0.991
- C. elegans KCN Survival ([1]; Dose 3.13 µM): 0.985
- C. elegans KCN Survival ([1]; Dose 6.25 µM): 0.849
- C. elegans KCN Survival ([1]; Dose 12.5 µM): 0.500
- C. elegans KCN Survival ([1]; Dose 25 µM): 0.148
- C. elegans KCN Survival ([1]; Dose 50 µM): 0.182
- CC50 at 2 days [2]: 93.1 µM
- viability at 2 days, 3.13 µM ([2]; Dose 3.13 µM): 100%
- viability at 2 days, 6.25 µM ([2]; Dose 6.25 µM): 100%
- viability at 2 days, 12.5 µM [2]: 100%
- viability at 2 days, 25 µM [2]: 100%
- viability at 2 days, 50 µM [2]: 81.4%
- viability at 2 days, 100 µM [2]: 46.4%
- LC50 [3, 7]: 636 µM
- viability at 1 µM [3]: 97%
- viability at 2 µM [3]: 98.6%
- viability at 3.9 µM [3]: 100%
- viability at 15.6 µM [3]: 99.1%
- viability at 31.3 µM [3]: 100%
- viability at 62.5 µM [3]: 91.8%
- viability at 125 µM [3]: 98.9%
- viability at 250 µM [3]: 96.4%
- viability at 500 µM [3]: 35.3%
- viability at 1000 µM [3]: 46.7%
- LC50 [3, 8]: 635 µM
- LC50 [4]: 11.7 µM

SMILES: CCn1c(C(C)c2ccc(CC(C)C)cc2)nc2ccccc21 (stereo not drawn) [STK951902]
- Screen "Hit" [1, 9]: Y (hits were identified as compounds that reduced relative motility below 0.25 (75% reduction))
- CC50 at 2 days [2, 10]: 31.7 µM
- LC50 [3, 7]: 644 µM
- LC50 [3, 8]: 644 µM
- LC50 [4]: 8.7 µM
